Data published in patent publication US20250186405A1, “Compound For Use In Treating Narcolepsy” (Alkermes, Inc., priority 2023, published 2025).
Read-outs that look alike come from different tables or passages of the source.

Experiments:
[1] = Part 6 IH: plasma pharmacokinetics, single doses; type: in vivo, human; settings: for Cmax / AUC(0-t) / Tmax: human, oral, plasma; for Cmax / AUC(0-t): geometric mean; for AUC(0-t): read-out: AUC0-24
Protocol: Treatments were administered under fasted state. Dose levels were as follows:
Subjects were randomized to 1 of 4 sequences.
Blood samples (up to 5 mL per sample) were collected for PK analysis of Compound A and its metabolite(s). The actual time of sample collection was recorded. The PK samples of the subjects randomized to placebo treatment were not analyzed. Any remaining plasma PK samples were used to explore the presence of any additional metabolites and/or biomarkers.
Plasma and urine concentrations of Compound A and its metabolite(s) were measured using a validated high-performance liquid chromatography with tandem mass spectrometry.
The PK population was used for summaries of plasma Compound A and its metabolite(s) concentrations and for analyses, summaries, and listing of PK parameters. Dose proportionality for Cmax, AUC0-t, and AUC0-∞ was evaluated using a linear model of logarithmically transformed values to assess the slope parameter, and the 95% CI for the slope was estimated. Where a 95% CI of the slope includes 1, it was considered as evidence of dose proportionality for that PK parameter.

[2] = system: subjects with narcolepsy type-2 (NT2); settings: human, in vivo
Protocol: Part 5 consisted of a 4-way, 4-period crossover study design in approximately 8 subjects (2 subjects per sequence; minimum of 4 subjects with 1 subject per sequence). Subjects were randomized 1:1:1:1 to 1 of 4 sequences with 4 treatment periods (3 single doses of Compound A and 1 dose of matching placebo), with up to 48 hours of washout between treatments. Treatments were administered under fasted state.
Subjects were randomized to 1 of 4 sequences. […] In each period, subjects were administered a single dose of study drug (either Compound A or placebo) as per the randomization schedule with approximately 240 mL of noncarbonated water following overnight fasting. No food was given for at least 3 hours after dose administration (i.e., fast can be broken after the 3-hour PK time point is collected). Water was allowed ad libitum except for 1 hour before and 1 hour after study drug administration. Safety assessments including AEs, safety ECGs, vital signs, and clinical laboratory tests were conducted, and plasma PK samples were collected. Furthermore, BP and HR were monitored once every hour for 12 hours on the dosing days.
(§1) Adverse events (AEs) and serious adverse events (SAEs) were monitored continuously until the completion of the study.
Nine subjects with NT2 were dosed in Part 5 (POC in NT2) in a randomized 4-sequence 4-period cross-over design. Each dose of Compound A or matching placebo was separated by 2 days. A 14-day washout period preceded the treatment period and included discontinuation of narcolepsy medications. All 9 subjects underwent the washout period and received at least one dose of Compound A. All subjects completed all 4-way randomized crossover periods.

healthy adult subjects = settings: human, in vivo
Protocol: Part 1 of the study is a SAD evaluation in healthy subjects consisting of 6 cohorts: Cohorts 1-6 received powder-in-capsule or matching placebo. There were approximately 8 subjects per cohort. Dose levels were as follows:
No food was given for at least 4 hours after dose administration. Water was allowed ad libitum except for the time 1 hour before and 1 hour after study drug administration. Safety assessments including AEs, safety ECGs, vital signs, and clinical laboratory tests were conducted, and plasma PK samples were collected.
as §1

Compound: CS(=O)(=O)N[C@H]1CCCN2C(=O)COc3ccccc3C3CCC(CC3)OCC12 (stereo partly drawn) [Compound A, N-[(4S,4aR,7α,10α)-1,2,3,4,4a,5,7,8,9,10,16,17-dodecahydro-17-oxo-7,10-ethanopyrido[1,2-d][1,7,4]benzodioxaazacyclotridecin-4-yl]methanesulfonamide]
- fold change in AUC and Cmax for 5-fold change in dose ([1]; IH patients, 5 to 25 mg): approximately 3 fold
- Cmax ([1]; 5 mg, IH, n = 7): 11.8 ng/mL
- AUC(0-t) ([1]; 5 mg, IH, n = 7): 78.9 ng·h/mL
- Cmax ([1]; 12 mg, IH, n = 7): 18.1 ng/mL
- AUC(0-t) ([1]; 12 mg, IH, n = 7): 156 ng·h/mL
- Cmax ([1]; 25 mg, IH, N = 8): 32.2 ng/mL
- AUC(0-t) ([1]; 25 mg, IH, N = 8): 230 ng·h/mL
- Tmax ([1]; 5 mg, IH, median, n = 7, read-out: Tmax): 1.5 h
- Tmax ([1]; 12 mg, IH, median, n = 7, read-out: Tmax): 3 h
- Tmax ([1]; 25 mg, IH patients, 5, 12, 25 mg, read-out: median tmax, range across doses): 1.5 to 3 h
- Tmax ([1]; 25 mg, IH, median, N = 8, read-out: Tmax): 1.5 h
- TEAE by Preferred Term: Influenza [2]: 1 (11.1) n (%)
- TEAE COVID-19 (healthy adult subjects): 3 n
